In patent US20260217708A1, “FUSED BENZAZEPINE DERIVATIVES FOR USE IN THE TREATMENT OF CANCER AND EPILEPSY” (UCB BIOPHARMA SRL, priority 2023, published 2026):

Experiments:
system Xc^− [1] = target: T1, system Xc^− (Homo sapiens, UniProt Q9UPY5); assay: [^14C]L-Cystine uptake assay; type: cell-based; design: endogenous in cells; host or cells: H4 cells; settings: H4 cells, sodium-free HEPES buffer, 0.5 μM L-[14C]Cystine and 4.5 μM L-Cystine, 1 hour at 37° C.; read-out: pIC50 [^14C] L-Cystine uptake assay (converted)
T1 sequence (Q9UPY5 1-501): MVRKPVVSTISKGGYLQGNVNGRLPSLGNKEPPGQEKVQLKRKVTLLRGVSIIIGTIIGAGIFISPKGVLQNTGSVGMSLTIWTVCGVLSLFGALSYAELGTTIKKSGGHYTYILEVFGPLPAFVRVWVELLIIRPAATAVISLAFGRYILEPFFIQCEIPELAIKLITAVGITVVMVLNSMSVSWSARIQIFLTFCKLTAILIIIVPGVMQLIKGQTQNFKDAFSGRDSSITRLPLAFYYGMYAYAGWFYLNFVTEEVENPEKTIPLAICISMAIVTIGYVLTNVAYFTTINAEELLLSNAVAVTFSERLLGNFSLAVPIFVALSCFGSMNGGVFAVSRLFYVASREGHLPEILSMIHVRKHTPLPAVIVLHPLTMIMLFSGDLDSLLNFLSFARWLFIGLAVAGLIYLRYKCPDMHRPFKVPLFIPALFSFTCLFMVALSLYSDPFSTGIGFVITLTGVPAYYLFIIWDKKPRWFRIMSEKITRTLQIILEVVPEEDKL
T1 sequence (P08195 1-529 partner): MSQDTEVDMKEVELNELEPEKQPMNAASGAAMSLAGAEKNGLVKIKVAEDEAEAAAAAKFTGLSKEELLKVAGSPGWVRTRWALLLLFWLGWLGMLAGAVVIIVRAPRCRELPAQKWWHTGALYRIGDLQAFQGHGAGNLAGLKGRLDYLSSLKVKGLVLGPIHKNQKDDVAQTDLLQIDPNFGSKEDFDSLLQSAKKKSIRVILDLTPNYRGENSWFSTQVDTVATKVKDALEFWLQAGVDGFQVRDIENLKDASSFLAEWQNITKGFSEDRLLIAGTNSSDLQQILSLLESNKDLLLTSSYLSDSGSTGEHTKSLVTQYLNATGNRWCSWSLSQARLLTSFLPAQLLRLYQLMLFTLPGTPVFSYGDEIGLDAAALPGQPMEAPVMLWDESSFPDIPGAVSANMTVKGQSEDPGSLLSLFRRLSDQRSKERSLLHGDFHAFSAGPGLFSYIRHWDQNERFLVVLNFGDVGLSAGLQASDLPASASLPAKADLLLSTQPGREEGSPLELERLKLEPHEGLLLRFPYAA
How it was run: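 Compound effect is given as pIC50, taken between controls of 1% DMSO and 50 μM Erastin. Human H4 cells were pretreated 15 min with compound in sodium-free buffer, then took up 0.5 μM [14C]cystine with 4.5 μM cold cystine for 1 hour at 37° C, read by scintillation proximity counting.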

system Xc^− [2] = target: T1, system Xc^−; assay: Cystine-induced glutamate release assay; type: cell-based; design: endogenous in cells; host or cells: H4 cells; settings: H4 cells, sodium-free HEPES buffer, 50 μM L-Cystine, 2 hours, Amplex Red glutamate readout; for IC50: read-out: pIC50 Cystine-induced glutamate release assay (converted)
How it was run: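 IC50 (reported as pIC50) normalized to DMSO 1% and Erastin 50 μM controls, from Amplex Red fluorescence of glutamate exported into supernatant. H4 cells were washed into sodium-free buffer to exclude EAAT transport, then given compound with 50 μM L-cystine for 2 h in the incubator.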

| Compound | IC50 (system Xc^− [1]) | IC50 (system Xc^− [2]) | pIC50 Cystine-induced glutamate release assay (system Xc^− [2]) |
| --- | --- | --- | --- |
| CC1C(=O)N(CC(=O)Nc2ccc(C(F)F)cc2)c2cc(Cl)cc(F)c2-c2cncnc21 (single isomer, unassigned) [#313, 2-[9-chloro-11-fluoro-5-methyl-6-oxo-5H-pyrimido[4,5-d][1]benzazepin-7-yl]-N-[4-(difluoromethyl)phenyl]acetamide] | 15.8 to 39.8 nM | < 15.8 nM |  |
| CC1C(=O)N(CC(=O)Nc2ccc(Cl)c(F)c2)c2cc(Cl)cc(F)c2-c2cncnc21 (single isomer, unassigned) [#314, 2-[9-chloro-11-fluoro-5-methyl-6-oxo-5H-pyrimido[4,5-d][1]benzazepin-7-yl]-N-(4-chloro-3-fluoro-phenyl)acetamide] | < 15.8 nM | 15.8 to 39.8 nM |  |
| COc1cc(F)c2c(c1)N(CC(=O)Nc1ccc(C(F)F)cc1)C(=O)C(C)c1ncccc1-2 (single isomer, unassigned) [#315, N-[4-(difluoromethyl)phenyl]-2-[11-fluoro-9-methoxy-5-methyl-6-oxo-5H-pyrido[2,3-d][1]benzazepin-7-yl]acetamide] | < 15.8 nM | < 15.8 nM |  |
| O=C(CN1C(=O)C(O)c2ncc(F)cc2-c2c(F)cc(F)cc21)Nc1ccc(Cl)c(F)c1 (single isomer, unassigned) [#317, N-(4-chloro-3-fluoro-phenyl)-2-[2,9,11-trifluoro-5-hydroxy-6-oxo-5H-pyrido[2,3-d][1]benzazepin-7-yl]acetamide] | 15.8 to 39.8 nM | < 15.8 nM |  |
| COc1cc2c(cn1)-c1cccnc1C(C)C(=O)N2CC(=O)Nc1ccc(Cl)c(F)c1 (single isomer, unassigned) [#320, N-(4-chloro-3-fluoro-phenyl)-2-[5-methoxy-10-methyl-9-oxo-4,8,12-triazatricyclo[9.4.0.0^2,7]pentadeca-1(15),2(7),3,5,11,13-hexaen-8-yl]acetamide] | 15.8 to 39.8 nM | 15.8 to 39.8 nM |  |
| Cc1cc2c(cn1)-c1ccc(F)cc1C(C)C(=O)N2CC(=O)Nc1ccc(C(F)F)cc1 (single isomer, unassigned) [#323, N-[4-(difluoromethyl)phenyl]-2-[9-fluoro-3,7-dimethyl-6-oxo-7H-pyrido[3,4-a][3]benzazepin-5-yl]acetamide] | < 15.8 nM | < 15.8 nM |  |
| Cc1cc2c(cn1)-c1ccc(F)cc1C(C)C(=O)N2CC(=O)Nc1ccc(Cl)c(F)c1 (single isomer, unassigned) [#324, N-(4-chloro-3-fluoro-phenyl)-2-[9-fluoro-3,7-dimethyl-6-oxo-7H-pyrido[3,4-a][3]benzazepin-5-yl]acetamide] | < 15.8 nM | < 15.8 nM |  |
| CC1C(=O)N(CC(=O)Nc2ccc(C(F)F)cc2)c2cc(C3(F)CC3)ncc2-c2cc(F)cnc21 (single isomer, unassigned) [#325, N-[4-(difluoromethyl)phenyl]-2-[14-fluoro-5-(1-fluorocyclopropyl)-10-methyl-9-oxo-4,8,12-triazatricyclo[9.4.0.0^2,7]pentadeca-1(11),2,4,6,12,14-hexaen-8-yl]acetamide] | < 15.8 nM | 15.8 to 39.8 nM |  |

Continued, values first:

| IC50 (system Xc^− [1]) | IC50 (system Xc^− [2]) | pIC50 Cystine-induced glutamate release assay (system Xc^− [2]) | Compound |
| --- | --- | --- | --- |
| 15.8 to 39.8 nM | 15.8 to 39.8 nM |  | CC1C(=O)N(CC(=O)Nc2ccc(C(F)F)cc2)c2cc(C#N)cc(F)c2-c2cccnc21 (single isomer, unassigned) [#309, 2-[9-cyano-11-fluoro-5-methyl-6-oxo-5H-pyrido[2,3-d][1]benzazepin-7-yl]-N-[4-(difluoromethyl)phenyl]acetamide] |
| < 15.8 nM | < 15.8 nM |  | CC1C(=O)N(CC(=O)Nc2ccc(Cl)c(F)c2)c2cc(C#N)cc(F)c2-c2cccnc21 (single isomer, unassigned) [#310, N-(4-chloro-3-fluoro-phenyl)-2-[9-cyano-11-fluoro-5-methyl-6-oxo-5H-pyrido[2,3-d][1]benzazepin-7-yl]acetamide] |
| 39.8 to 100 nM | < 15.8 nM |  | CC1C(=O)N(CC(=O)Nc2ccc(C(F)F)cc2)c2cc(C#N)ccc2-c2cccnc21 (single isomer, unassigned) [#312, 2-[9-cyano-5-methyl-6-oxo-5H-pyrido[2,3-d][1]benzazepin-7-yl]-N-[4-(difluoromethyl)phenyl]acetamide] |
| 15.8 to 39.8 nM | 15.8 to 39.8 nM |  | COc1cc(F)c2c(c1)N(CC(=O)Nc1ccc(Cl)c(F)c1)C(=O)C(C)c1ncccc1-2 (single isomer, unassigned) [#316, N-(4-chloro-3-fluoro-phenyl)-2-[11-fluoro-9-methoxy-5-methyl-6-oxo-5H-pyrido[2,3-d][1]benzazepin-7-yl]acetamide] |
| 39.8 to 100 nM | 15.8 to 39.8 nM |  | COc1cc2c(cn1)-c1cccnc1C(C)C(=O)N2CC(=O)Nc1ccc(C(F)F)cc1 (single isomer, unassigned) [#319, N-[4-(difluoromethyl)phenyl]-2-[5-methoxy-10-methyl-9-oxo-4,8,12-triazatricyclo[9.4.0.0^2,7]pentadeca-1(15),2(7),3,5,11,13-hexaen-8-yl]acetamide] |
| < 15.8 nM | < 15.8 nM |  | CC1C(=O)N(CC(=O)Nc2ccc(Cl)c(F)c2)c2cc(C3(F)CC3)ncc2-c2cc(F)cnc21 (single isomer, unassigned) [#326, N-(4-chloro-3-fluoro-phenyl)-2-[14-fluoro-5-(1-fluorocyclopropyl)-10-methyl-9-oxo-4,8,12-triazatricyclo[9.4.0.0^2,7]pentadeca-1(15),2,4,6,11,13-hexaen-8-yl]acetamide] |
| < 15.8 nM | < 15.8 nM |  | Cc1cc2c(cn1)-c1cc(F)cnc1C(C)C(=O)N2CC(=O)Nc1ccc(Cl)c(F)c1 (single isomer, unassigned) [#327, N-(4-chloro-3-fluoro-phenyl)-2-[14-fluoro-5,10-dimethyl-9-oxo-4,8,12-triazatricyclo[9.4.0.0^2,7]pentadeca-1(15),2,4,6,11,13-hexaen-8-yl]acetamide] |
| 15.8 to 39.8 nM | < 15.8 nM |  | Cc1cc2c(cn1)-c1cc(F)cnc1C(C)C(=O)N2CC(=O)Nc1ccc(C(F)F)cc1 (single isomer, unassigned) [#328, N-[4-(difluoromethyl)phenyl]-2-[14-fluoro-5,10-dimethyl-9-oxo-4,8,12-triazatricyclo[9.4.0.0^2,7]pentadeca-1(15),2,4,6,11,13-hexaen-8-yl]acetamide] |
| 15.8 to 39.8 nM | 15.8 to 39.8 nM |  | COc1nc(OC(F)F)cc2c1-c1cccnc1C(C)C(=O)N2CC(=O)Nc1ccc(C(F)F)cc1 (single isomer, unassigned) [#329, 2-[5-(difluoromethoxy)-3-methoxy-10-methyl-9-oxo-4,8,12-triazatricyclo[9.4.0.0^2,7]pentadeca-1(15),2(7),3,5,11,13-hexaen-8-yl]-N-[4-(difluoromethyl)phenyl]acetamide] |
| < 15.8 nM |  | C (about 7.40 < pIC50 ≤ about 7.80) | COc1nc(OC(F)F)cc2c1-c1cccnc1C(C)C(=O)N2CC(=O)Nc1ccc(C(F)F)cc1 (single isomer, unassigned) [#330, 2-[5-(difluoromethoxy)-3-methoxy-10-methyl-9-oxo-4,8,12-triazatricyclo[9.4.0.0^2,7]pentadeca-1(15),2(7),3,5,11,13-hexaen-8-yl]-N-[4-(difluoromethyl)phenyl]acetamide] |
| 15.8 to 39.8 nM | 39.8 to 100 nM |  | CC1C(=O)N(CC(=O)Nc2ccc(C(F)(F)F)nc2)c2cc(Cl)cc(F)c2-c2cccnc21 (single isomer, unassigned) [#331, 2-[9-chloro-11-fluoro-5-methyl-6-oxo-5H-pyrido[2,3-d][1]benzazepin-7-yl]-N-[6-(trifluoromethyl)-3-pyridyl]acetamide] |
